What follows are molecules tested against T1, His-tagged full-length RSK2 (RPS6KA3) (Homo sapiens, UniProt P51812) (assay: RSK2 Omnia Assay for compound IC50 determination). Settings: ATP 15 μM, n=2, read-out: Mean RSK2 Biochem IC50.
T1 construct: His-tagged full-length RSK2 (RPS6KA3, Invitrogen PV3323); His; purchased Invitrogen PV3323
Type: biochemical
Experimental: RSK1 & RSK2 Omnia Assay Protocol for Compound IC50 Determination
The Omnia Assay (Invitrogen) has been optimized for His-tagged full length RSK1 (RPS6KA1, Millipore 14-509) and for His-tagged full-length RSK2 (RPS6KA3, Invitrogen PV3323). In this assay system, Omnia ST Peptide 6 (Invitrogen KNZ1061) functions as a substrate for RSK1 or RSK2. Phosphorylation of this SOX-containing peptide results in an increase in fluorescence at 485 nm upon excitation at 360 nm.
Assays are carried out in 384-well OptiPlates (Perkin Elmer 6007290) in a total volume of 20 μL containing RSK1 ([…]) or RSK2 ([…]), Omnia ST Peptide 6 (5 μM), ATP (15 μM, Km=16.3 μM), and test compound (variable) in RSK assay buffer (50 mM HEPES, pH 7.5, 10 mM MgCl2, 0.01% Tween-20, 1% glycerol, 1 mM DTT, 1 mM EGTA, 0.01% BSA) with 1% DMSO.
IC50s for test compounds are typically determined using an 11-point three-fold serial dilution with a final assay concentration ranging either from 170 μM to […] or from 17 μM to […]. All compound concentrations are assayed in duplicate. Initial compound dilutions are prepared at 100× concentration in 100% DMSO from a 10 mM stock solution. Compounds are further diluted 1:25 in assay buffer resulting in a 4× concentrated solution.
To run the assay 5 μL of the above 4× concentrated compound solution (or 4% DMSO for positive controls) is added to the assay plate followed by 5 μL of a solution containing peptide (20 μM) and ATP (60 μM) in assay buffer. The reaction is initiated by the addition of 10 μL of RSK1 ([…]) or RSK2 ([…]) in assay buffer, or assay buffer alone for negative controls. The increase in fluorescence due to peptide phosphorylation is monitored continuously as a function of time using a Spectramax M5 plate reader (Molecular Devices) equipped with SoftMax Pro software.
The slopes from the linear portion of progress curves are used to determine IC50 values by non-linear curve-fitting to a four-parameter equation using GraphPad Prism (GraphPad Software, Inc.) or XLFit (IDBS). IC50's are determined in duplicate (n=2) and Ki values are calculated from IC50 values using the Cheng-Prusoff equation assuming a competitive mode of inhibition.

T1 sequence (P51812 whole entry): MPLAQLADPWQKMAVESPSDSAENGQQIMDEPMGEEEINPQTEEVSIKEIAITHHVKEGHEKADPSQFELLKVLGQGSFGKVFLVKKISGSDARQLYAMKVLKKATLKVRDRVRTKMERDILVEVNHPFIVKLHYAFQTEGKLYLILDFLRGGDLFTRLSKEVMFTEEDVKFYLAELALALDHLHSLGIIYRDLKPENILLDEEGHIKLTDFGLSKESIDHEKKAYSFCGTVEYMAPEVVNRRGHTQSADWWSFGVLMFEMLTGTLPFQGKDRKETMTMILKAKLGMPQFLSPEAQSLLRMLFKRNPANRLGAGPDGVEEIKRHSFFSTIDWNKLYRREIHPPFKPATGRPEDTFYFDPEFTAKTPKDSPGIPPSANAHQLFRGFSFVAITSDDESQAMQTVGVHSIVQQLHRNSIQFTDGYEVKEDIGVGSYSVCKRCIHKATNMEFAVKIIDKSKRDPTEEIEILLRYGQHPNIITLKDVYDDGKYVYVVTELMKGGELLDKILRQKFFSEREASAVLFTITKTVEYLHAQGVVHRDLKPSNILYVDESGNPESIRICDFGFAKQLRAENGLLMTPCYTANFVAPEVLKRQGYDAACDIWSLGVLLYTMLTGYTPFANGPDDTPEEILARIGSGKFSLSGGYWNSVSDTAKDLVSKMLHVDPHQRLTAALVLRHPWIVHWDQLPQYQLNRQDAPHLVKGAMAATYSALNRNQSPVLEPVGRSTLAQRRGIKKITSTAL

IC50, > 1000 nM:
CC(C)CCN1c2nc(N[C@H]3CC[C@H](O)CC3)ncc2N(c2ccccc2)C(=O)C1C (relative stereo) [Example 11, 2-[(trans-4-hydroxycyclohexyl)amino]-7-methyl-8-(3-methylbutyl)-5-phenyl-7,8-dihydropteridin-6(5H)-one]
C[C@@H]1C(=O)N(c2ccccc2)c2cnc(Nc3ccc4[nH]ncc4c3)nc2N1CCN(C)C [Example 73, (7R)-8-[2-(dimethylamino)ethyl]-2-(1H-indazol-5-ylamino)-7-methyl-5-phenyl-7,8-dihydropteridin-6(5H)-one]
COC(=O)c1cccc(Nc2ncc3c(n2)N(CCC(C)C)C(C)C(=O)N3c2ccccc2)c1 (centres unmarked) [Example 10, methyl 3-{[7-methyl-8-(3-methylbutyl)-6-oxo-5-phenyl-5,6,7,8-tetrahydropteridin-2-yl]amino}benzoate]

IC50, 100 to 1000 nM:
Cc1cc(Nc2ncc3c(n2)N(C2CCCCC2)[C@H](C)C(=O)N3c2cccc(C#N)c2)cc2cn[nH]c12 [Example 59, 3-[(7R)-8-cyclohexyl-7-methyl-2-[(7-methyl-1H-indazol-5-yl)amino]-6-oxo-7,8-dihydropteridin-5(6H)-yl]benzonitrile]
O=c1c(=O)n(C2CCCC2)c2nc(Nc3ccc4[nH]ncc4c3)ncc2n1-c1ccccc1 [Example 307, 8-cyclopentyl-2-(1H-indazol-5-ylamino)-5-phenyl-5,8-dihydropteridine-6,7-dione]
C[C@@H]1C(=O)N(c2cccc(C#N)c2)c2cnc(Nc3ccc(F)c4[nH]ncc34)nc2N1C1CCCCC1 [compound 107, 3-[(7R)-8-cyclohexyl-2-[(7-fluoro-1H-indazol-4-yl)amino]-7-methyl-6-oxo-7,8-dihydropteridin-5(6H)-yl]benzonitrile]
CC(C)N1c2nc(Nc3ccc4[nH]ncc4c3)ncc2N(c2ccccc2)C(=O)C1C (centres unmarked) [Example 13, 2-(1H-indazol-5-ylamino)-7-methyl-5-phenyl-8-(propan-2-yl)-7,8-dihydropteridin-6(5H)-one]

IC50, ≤ 100 nM:
C[C@@H]1C(=O)N(c2ccc(C(F)(F)F)cc2)c2cnc(Nc3ccc4[nH]ncc4c3)nc2N1C1CCCCC1 [Example 35, (7R)-8-cyclohexyl-2-(1H-indazol-5-ylamino)-7-methyl-5-[4-(trifluoromethyl)phenyl]-7,8-dihydropteridin-6(5H)-one]
COc1ccc(N2C(=O)[C@@H](C)N(C3CCCCC3)c3nc(Nc4cc(F)c5[nH]ncc5c4)ncc32)cc1OC [compound 132, (7R)-8-cyclohexyl-5-(3,4-dimethoxyphenyl)-2-[(7-fluoro-1H-indazol-5-yl)amino]-7-methyl-7,8-dihydropteridin-6(5H)-one]
CNC(=O)c1cccc(N2C(=O)[C@@H](C)N(C3CCCCC3)c3nc(Nc4ccc5[nH]ncc5c4)ncc32)c1 [Example 46, 3-[(7R)-8-cyclohexyl-2-(1H-indazol-5-ylamino)-7-methyl-6-oxo-7,8-dihydropteridin-5(6H)-yl]-N-methylbenzamide]
C[C@@H]1C(=O)N(c2cccc(C#N)c2)c2cnc(Nc3cc(F)c(O)c(F)c3)nc2N1C1CCC(F)(F)CC1 [compound 276, 3-[(7R)-8-(4,4-difluorocyclohexyl)-2-[(3,5-difluoro-4-hydroxyphenyl)amino]-7-methyl-6-oxo-7,8-dihydropteridin-5(6H)-yl]benzonitrile]
CC(C)CCN1c2nc(Nc3ccc4[nH]ncc4c3)ncc2N(c2ccccc2)C(=O)C1C (centres unmarked) [Example 1, 2-(1H-indazol-5-ylamino)-7-methyl-8-(3-methylbutyl)-5-phenyl-7,8-dihydropteridin-6(5H)-one]
C[C@@H]1C(=O)N(c2cccc(C#N)c2)c2cnc(Nc3cc4cn[nH]c4cc3F)nc2N1C1CCCCC1 [Example 56, 3-[(7R)-8-cyclohexyl-2-[(6-fluoro-1H-indazol-5-yl)amino]-7-methyl-6-oxo-7,8-dihydropteridin-5(6H)-yl]benzonitrile]
C[C@@H]1C(=O)N(c2ccc(Cl)c(C#N)c2)c2cnc(Nc3ccc4[nH]ncc4c3)nc2N1C1CCCCC1 [compound 105, 2-chloro-5-[(7R)-8-cyclohexyl-2-(1H-indazol-5-ylamino)-7-methyl-6-oxo-7,8-dihydropteridin-5(6H)-yl]benzonitrile]
COc1ccc(N2C(=O)[C@@H](C)N(C3CCC(F)(F)CC3)c3nc(Nc4cc(F)c5[nH]ncc5c4)ncc32)cc1OC [compound 262, (7R)-8-(4,4-difluorocyclohexyl)-5-(3,4-dimethoxyphenyl)-2-[(7-fluoro-1H-indazol-5-yl)amino]-7-methyl-7,8-dihydropteridin-6(5H)-one]
C[C@@H]1C(=O)N(c2ccc(N3CCN(C)CC3)c(C#N)c2)c2cnc(Nc3cnc4[nH]ncc4c3)nc2N1[C@H]1CC[C@H](C)CC1 [compound 252, 5-[(7R)-7-methyl-8-(trans-4-methylcyclohexyl)-6-oxo-2-(1H-pyrazolo[3,4-b]pyridin-5-ylamino)-7,8-dihydropteridin-5(6H)-yl]-2-(4-methylpiperazin-1-yl)benzonitrile]
C[C@@H]1C(=O)N(c2csc(C(=O)O)c2)c2cnc(Nc3ccc4[nH]ncc4c3)nc2N1C1CCCCC1 [compound 124, 4-[(7R)-8-cyclohexyl-2-(1H-indazol-5-ylamino)-7-methyl-6-oxo-7,8-dihydropteridin-5(6H)-yl]thiophene-2-carboxylic acid]
C[C@@H]1C(=O)N(c2ccc(S(C)(=O)=O)cc2)c2cnc(Nc3ccc4[nH]ncc4c3)nc2N1C1CCCCC1 [Example 40, (7R)-8-cyclohexyl-2-(1H-indazol-5-ylamino)-7-methyl-5-[4-(methylsulfonyl)phenyl]-7,8-dihydropteridin-6(5H)-one]
C[C@@H]1C(=O)N(c2ccc(F)c(F)c2)c2cnc(Nc3ccc4[nH]ncc4c3)nc2N1C1CCCCC1 [Example 49, (7R)-8-cyclohexyl-5-(3,4-difluorophenyl)-2-(1H-indazol-5-ylamino)-7-methyl-7,8-dihydropteridin-6(5H)-one]
CC(C)Oc1ccc(N2C(=O)[C@@H](C)N([C@H]3CC[C@H](C)CC3)c3nc(Nc4cnc5[nH]ncc5c4)ncc32)cc1C#N [compound 248, 5-[(7R)-7-methyl-8-(trans-4-methylcyclohexyl)-6-oxo-2-(1H-pyrazolo[3,4-b]pyridin-5-ylamino)-7,8-dihydropteridin-5(6H)-yl]-2-(propan-2-yloxy)benzonitrile]
C[C@@H]1C(=O)N(c2ccccc2)c2cnc(Nc3ccc4[nH]ncc4c3)nc2N1Cc1ccccc1 [Example 76, (7R)-8-benzyl-2-(1H-indazol-5-ylamino)-7-methyl-5-phenyl-7,8-dihydropteridin-6(5H)-one]
N#Cc1cccc(N2C(=O)[C@@H](CO)N(C3CCCC3)c3nc(Nc4ccc5[nH]ncc5c4)ncc32)c1 [Example 220, 3-[(7R)-8-cyclopentyl-7-(hydroxymethyl)-2-(1H-indazol-5-ylamino)-6-oxo-7,8-dihydropteridin-5(6H)-yl]benzonitrile]
C[C@@H]1C(=O)N(c2ccc3cccnc3c2)c2cnc(Nc3cc(F)c4[nH]ncc4c3)nc2N1C1CCCCC1 [compound 133, (7R)-8-cyclohexyl-2-[(7-fluoro-1H-indazol-5-yl)amino]-7-methyl-5-(quinolin-7-yl)-7,8-dihydropteridin-6(5H)-one]
C[C@@H]1C(=O)N(c2ccccc2)c2cnc(Nc3ccc4[nH]ncc4c3)nc2N1CC1CCCCC1 [Example 72, (7R)-8-(cyclohexylmethyl)-2-(1H-indazol-5-ylamino)-7-methyl-5-phenyl-7,8-dihydropteridin-6(5H)-one]
C[C@@H]1C(=O)N(c2ccn(C)c(=O)c2)c2cnc(Nc3cc(F)c4[nH]ncc4c3)nc2N1C1CCCCC1 [compound 176, (7R)-8-cyclohexyl-2-[(7-fluoro-1H-indazol-5-yl)amino]-7-methyl-5-(1-methyl-2-oxo-1,2-dihydropyridin-4-yl)-7,8-dihydropteridin-6(5H)-one]
C[C@@H]1C(=O)N(c2cccc(C#N)c2)c2cnc(Nc3ccc(C(=O)O)c(F)c3)nc2N1C1CCC(F)(F)CC1 [compound 271, 4-{[(7R)-5-(3-cyanophenyl)-8-(4,4-difluorocyclohexyl)-7-methyl-6-oxo-5,6,7,8-tetrahydropteridin-2-yl]amino}-2-fluorobenzoic acid]
